Patent publication US7807138B2, “Biomarkers of metabolic responses to hepatic drugs” (Metabolon, Inc., priority 2006, dated 2010)
Marks after values point to notes of the source that are not given here.

Experiments:
rat liver [1] = test: GC-MS metabolomics of liver from rats dosed with clofibrate; type: in vivo; conditions: 250 mg/kg/d
Experimental: In one embodiment, the hepatotoxicant is clofibrate. Clofibrate or vehicle is administered orally (0, 50, 250 mg/kg/d) to groups of 6 rats and serum and livers are collected 6 and 24 h after either a single or 14 daily doses. Global biochemical profiles are determined by LC-MS and GC-MS and components highly perturbed by clofibrate exposure are identified by the methods described above. […] Rats (6 per group) were dosed by gavage with vehicle, 50 or 250 mg/kg clofibrate per day for 1 (single dose) or 14 days (repeated dose). These groups are referred to as “day 1” and ‘day 14 (d 1 and d14).” Liver and serum were collected at 6 and 24 h post-dosing in the day 1 and day 14. In detail, a single dose of clofibrate or vehicle was administered by gavage (0, 50 and 250 mg/kg) to groups of 18 male Sprague Dawley rats at 11 wks age. Six rats per dose group were euthanized at 6 and 24 h post-dose. Serum (for metabolomics and alanine aminotransferase (ALT), and aspartate aminotransferase (AST)), liver lobes (for histology), and frozen liver and urine (for metabolomics) were collected. Six rats per dose group were placed in metabolism cages for urine collection at −24-0 h, 0-6 h, 6-24 h and 24-48 h. These rats were removed from metabolism cages at 48 h post-dose, for blood and liver collection. The detailed study design is set forth in Chart 1. For GC-MS, liver was extracted with CHCl3:MeOH mixtures. Organic residue was derivitized with BSTFA and dried aqueous residues were derivitized with methoxyamine HCl/BSTFA. Samples were injected with 10:1 split into an Agilent 6890 gas chromatograph. A Leco Pegasus III TOFMS was used. Ions were generated at 70 eV with 3.2 mA ionization current; 25 spectra/s were recorded for 60-800 m/z. Acceleration voltage activated after 180 solvent delay. Detector voltage: 1750 V. Data were processed with Leco ChromaTOF software. Automatic peak detection and mass spectrum deconvolution were performed using 1.33 s peak width. Peaks with S/N less than 20 were rejected. Component identification was accomplished with the NIST 98' MS library and, in some cases, verified with standards. Components with similarity greater than 600 were used for analysis.

rat liver [2] = test: LC-MS metabolomics of liver from rats dosed with clofibrate; type: in vivo; conditions: LCMS
Experimental: In one embodiment, the hepatotoxicant is clofibrate. Clofibrate or vehicle is administered orally (0, 50, 250 mg/kg/d) to groups of 6 rats and serum and livers are collected 6 and 24 h after either a single or 14 daily doses. Global biochemical profiles are determined by LC-MS and GC-MS and components highly perturbed by clofibrate exposure are identified by the methods described above. […] Rats (6 per group) were dosed by gavage with vehicle, 50 or 250 mg/kg clofibrate per day for 1 (single dose) or 14 days (repeated dose). These groups are referred to as “day 1” and ‘day 14 (d 1 and d14).” Liver and serum were collected at 6 and 24 h post-dosing in the day 1 and day 14. In detail, a single dose of clofibrate or vehicle was administered by gavage (0, 50 and 250 mg/kg) to groups of 18 male Sprague Dawley rats at 11 wks age. Six rats per dose group were euthanized at 6 and 24 h post-dose. Serum (for metabolomics and alanine aminotransferase (ALT), and aspartate aminotransferase (AST)), liver lobes (for histology), and frozen liver and urine (for metabolomics) were collected. Six rats per dose group were placed in metabolism cages for urine collection at −24-0 h, 0-6 h, 6-24 h and 24-48 h. These rats were removed from metabolism cages at 48 h post-dose, for blood and liver collection. The detailed study design is set forth in Chart 1. Samples were extracted with 20% acetonitrile, then were evaporated and re-constituted in distilled water. For the liver, the left lobe was selected for metabolomic analysis. LC-MS was performed in positive and negative electrospray ionization modes on Bruker time of flight (TOF) instruments, using Icoria™ proprietary HPLC methods and picking and alignment programs. Samples were randomly placed in wells on 96-well plates, keeping d 1 and d 14 samples on separate plates. Between 54 and 72 samples plus quality control samples were run on each plate. Pre- and post-flight instrument checks were carried out. Thereafter, data integrity checks were performed to detect any errors related to our Laboratory Information Management System (LIMS) system, labeling of samples, and missing or extraneous information. […] Metabolites associated with LC-MS components were putatively identified using our proprietary database of mammalian metabolites as well as external sources of metabolic information.

rat liver [3] = conditions: rats, cited from earlier work
rats = test: Liver enzymes ALT and AST in serum; type: in vivo, rat; conditions: 50 or 250 mg/kg, any groups
Experimental: In detail, a single dose of clofibrate or vehicle was administered by gavage (0, 50 and 250 mg/kg) to groups of 18 male Sprague Dawley rats at 11 wks age. Six rats per dose group were euthanized at 6 and 24 h post-dose. Serum (for metabolomics and alanine aminotransferase (ALT), and aspartate aminotransferase (AST)), liver lobes (for histology), and frozen liver and urine (for metabolomics) were collected. Six rats per dose group were placed in metabolism cages for urine collection at −24-0 h, 0-6 h, 6-24 h and 24-48 h. These rats were removed from metabolism cages at 48 h post-dose, for blood and liver collection. The detailed study design is set forth in Chart 1.

rat liver [4] = test: Liver histology; type: in vivo
Experimental: […] Six rats per dose group were euthanized at 6 and 24 h post-dose. Serum (for metabolomics and alanine aminotransferase (ALT), and aspartate aminotransferase (AST)), liver lobes (for histology), and frozen liver and urine (for metabolomics) were collected. Six rats per dose group were placed in metabolism cages for urine collection at −24-0 h, 0-6 h, 6-24 h and 24-48 h. These rats were removed from metabolism cages at 48 h post-dose, for blood and liver collection. The detailed study design is set forth in Chart 1.

[5] = 50 mg/kg/d for 14 days, 6 H after administration
[6] = 50 mg/kg/d for 14 days, 24 H after administration
[7] = 250 mg/kg/d for 14 days, 6 H after administration
[8] = 250 mg/kg/d for 14 days, 24 H after administration

Structure (SMILES): CCOC(=O)C(C)(C)Oc1ccc(Cl)cc1 [Clofibrate, ethyl-p-chloro-phenoxyisobutyrate]
- 1-Mono linoleoylglycerol fold change (rat liver [1]; DAY 1, 6 H): 1.11*** fold change
- 1-Mono oleoylglycerol fold change (rat liver [1]; DAY 1, 6 H): 0.98* fold change
- 1-Mono palmitoylglycerol fold change (rat liver [1]; DAY 1, 6 H): 0.91** fold change
- 2-Mono oleoylglycerol fold change (rat liver [1]; DAY 1, 6 H): 1.12*** fold change
- Cholesterol fold change (rat liver [1]; DAY 1, 6 H): 1.34*** fold change
- Glucose (aq) fold change (rat liver [1]; DAY 1, 6 H): 0.29* fold change
- Glycine fold change (rat liver [1]; DAY 1, 6 H): 2.69** fold change
- Lactic acid fold change (rat liver [1]; DAY 1, 6 H): 1.56** fold change
- Linoleic acid fold change (rat liver [1]; DAY 1, 6 H): 0.97* fold change
- Palmitate fold change (rat liver [1]; DAY 1, 6 H): 0.95*** fold change
- Stearate fold change (rat liver [1]; DAY 1, 6 H): 1.07* fold change
- 1-Mono stearoylglycerol fold change (rat liver [1]; DAY 1, 24 H): 17.14** fold change
- Glycerol 1(3)-phosphate fold change (rat liver [1]; DAY 1, 24 H): 2.56* fold change
- Glycine fold change (rat liver [1]; DAY 1, 24 H): 3.42* fold change
- L-Aspartic acid fold change (rat liver [1]; DAY 1, 24 H): 27.88*** fold change
- Lactic acid fold change (rat liver [1]; DAY 1, 24 H): 4.41* fold change
- Succinic acid (Butanedioic acid) fold change (rat liver [1]; DAY 1, 24 H): 17.05** fold change
- l-Alanine fold change (rat liver [1]; DAY 1, 24 H): 4.74* fold change
- 1-Mono palmitoylglycerol fold change (rat liver [1]; DAY 14, 6 H): 0.04** fold change
- 1-Mono stearoylglycerol fold change (rat liver [1]; DAY 14, 6 H): 0.22** fold change
- 2-Mono stearoylglycerol fold change (rat liver [1]; DAY 14, 6 H): 0.41* fold change
- Arachidonic acid fold change (rat liver [1]; DAY 14, 6 H): 0.22*** fold change
- Cholesterol fold change (rat liver [1]; DAY 14, 6 H): 1.87** fold change
- Malate fold change (rat liver [1]; DAY 14, 6 H): 0.1** fold change
- Palmitate fold change (rat liver [1]; DAY 14, 6 H): 0.72** fold change
- β-Sitosterol fold change (rat liver [1]; DAY 14, 6 H): 0.37** fold change
- Cholesterol fold change (rat liver [1]; DAY 14, 24 H): 0.69** fold change
- Docosahexaenoic acid fold change (rat liver [1]; DAY 14, 24 H): 0.58* fold change
- Glucose (aq) fold change (rat liver [1]; DAY 14, 24 H): 0.39** fold change
- Malate fold change (rat liver [1]; DAY 14, 24 H): 0.33** fold change
- β-Sitosterol fold change (rat liver [1]; DAY 14, 24 H): 0.46* fold change
- Clofibrate metabolite Propanoic acid, 2-(4-chlorophenoxy)-2-methyl- in liver (rat liver [1]; cell spans the time columns): (not present in control)
- D-Glycerate fold change relative to control (rat liver [2]; [5]): 1.3 fold change
- Glycero-3-phosphoethanolamine fold change relative to control (rat liver [2]; [5]): −3.2 fold change
- Threonate fold change relative to control (rat liver [2]; [5]): 1.3 fold change
- Ornithine fold change relative to control (rat liver [2]; [6]): 1.84 fold change
- Threonate fold change relative to control (rat liver [2]; [6]): −1.4 fold change
- Various bile acids fold change relative to control (rat liver [2]; [6]): 1.3 fold change
- Creatine fold change relative to control (rat liver [2]; [7]): 1.4 fold change
- D-Glycerate fold change relative to control (rat liver [2]; [7]): 1.2 fold change
- Glutathione fold change relative to control (rat liver [2]; [7]): −1.5 fold change
- Glycero-3-phosphoethanolamine fold change relative to control (rat liver [2]; [7]): −7.7 fold change
- Hypotaurine fold change relative to control (rat liver [2]; [7]): 1.3 fold change
- Ornithine fold change relative to control (rat liver [2]; [7]): 2.3-5.4 fold change
- Serine fold change relative to control (rat liver [2]; [7]): 1.3-1.7 fold change
- Various bile acids fold change relative to control (rat liver [2]; [7]): 1.4 fold change
- Creatine fold change relative to control (rat liver [2]; [8]): 2.1 fold change
- Hypotaurine fold change relative to control (rat liver [2]; [8]): 1.3 fold change
- Ornithine fold change relative to control (rat liver [2]; [8]): 2.8-10.6 fold change
- Serine fold change relative to control (rat liver [2]; [8]): 1.7 fold change
- Microscopic changes to liver (rat liver [3]; 24 h after a single exposure): no microscopic changes to liver
- Liver histopathology (rat liver [3]; after 2 weeks): induced hypertrophy
- ALT (rats): not elevated
- AST (rats): not elevated
- Histology: hepatocellular cytologic alterations (rat liver [4]; after 14 doses at 250 mg/kg/day, all time points): hepatocellular cytologic alterations (indicating loss of glycogen and eosinophilic granular cytoplasm) were noted at all time points
- Histology: hepatocellular mitotic figures (rat liver [4]; after a single dose, 50 to 250-mg/kg): dose related increase and severity of hepatocellular mitotic figures
